Results published in ChEMBL document CHEMBL1201862, “PubChem BioAssay data set” (2004).
Calls of active or inactive are those of the source.

Experiments:
[1] = molecular target: T1, Mitochondrial peptide methionine sulfoxide reductase (Bos taurus, UniProt P54149); assay type: functional;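 also: absorbance read-out, biochemical high-throughput dose-response screen for MsrA inhibitors, confirmatory; recombinant bovine MsrA coupled to E. coli TrxB with NADPH and selenocystamine; potency is for inhibitors of MsrA activity on DMSO substrate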
T1 sequence (P54149 whole entry): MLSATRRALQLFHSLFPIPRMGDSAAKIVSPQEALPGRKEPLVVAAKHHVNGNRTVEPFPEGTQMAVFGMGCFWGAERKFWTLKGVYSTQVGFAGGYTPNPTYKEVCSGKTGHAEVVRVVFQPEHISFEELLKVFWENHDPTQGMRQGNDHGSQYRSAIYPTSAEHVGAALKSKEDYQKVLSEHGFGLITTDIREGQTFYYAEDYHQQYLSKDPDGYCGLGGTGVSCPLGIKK

[2] = molecular target: DNA repair protein RAD52 homolog (Homo sapiens, UniProt P43351); assay type: functional, biochemical
[3] = molecular target: DNA repair and recombination protein RAD54-like (Homo sapiens, UniProt Q92698); experiment: RAD54 Holliday junction migration blockers – biochemical, fluorescence, cherry-picked samples, dose series, confirmation (AID 651657); assay type: functional
[4] = molecular target: FAD-linked sulfhydryl oxidase ALR (Homo sapiens, UniProt P55789); experiment: ALR-catalysed DTT oxidation blockers – biochemical, H2O2 detection, luminescence, cherry-pick, dose response (AID 493248)
Paired box protein Pax-8 = Paired box protein Pax-8 (Homo sapiens, UniProt Q06710); experiment: PAX8 transcriptional activity inhibition in RMG-I – RMG-I cells, luciferase, cherry-pick, dose response (AID 687027); assay type: functional, cell-based;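 also: luciferase reporter driven by Pax8 target thyroperoxidase promoter measured by SteadyGlo luminescence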
Beta Lactamase = Beta Lactamase (Pseudomonas aeruginosa, UniProt Q932Y6); experiment: BLA reporter interference, concentration series – BLA reporter cells, FRET fluorescence, artefact control for NOD2-RIPK2 interaction inhibitor project, dose response (AID 651552); assay type: functional, cell-based
[5] = general cell-killing toxicity readout – plate reader, dry powder samples, cytotoxicity control for PAX8 inhibitor project, dose response (AID 743021); assay type: functional, cell-based
Vero = experiment: cells; assay type: functional; details: Chlorocebus sabaeus
[6] = Fluorescence-based cell-based high throughput dose response assay for inhibitors of the interaction of nucleotide-binding oligomerization domain containing 2 (NOD2) and the receptor-interacting serine-threonine kinase 2 (RIPK2).; assay type: functional; details: Homo sapiens
[7] = molecular target: Heat shock protein HSP 90-alpha (Homo sapiens, UniProt P07900); assay type: functional, organism-based
[8] = molecular target: T2, Probable nicotinate-nucleotide adenylyltransferase (Staphylococcus aureus (strain N315), UniProt P65502); assay type: functional, Staphylococcus aureus subsp. aureus N315; details: read-out: IC50_Mean;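 as to IC50 Mean: confirmatory dose-response retesting of NadD inhibitor hits first found in an ultra-high-throughput screen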
[9] = molecular target: T3, Orexin/Hypocretin receptor type 1 (Homo sapiens, UniProt O43613); experiment: Homogeneous Time Resolved Fluorescence (HTRF)-based cell-based high throughput dose response assay for antagonists of the orexin 1 receptor (OX1R; HCRTR1). [Related pubchem assays (depositor defined):AID434989, AID435008, AID463079, AID485270, AID492963, AID492964, AID492965, AID493232, AID504717, AID504718]; assay type: functional
T3 sequence (O43613 whole entry): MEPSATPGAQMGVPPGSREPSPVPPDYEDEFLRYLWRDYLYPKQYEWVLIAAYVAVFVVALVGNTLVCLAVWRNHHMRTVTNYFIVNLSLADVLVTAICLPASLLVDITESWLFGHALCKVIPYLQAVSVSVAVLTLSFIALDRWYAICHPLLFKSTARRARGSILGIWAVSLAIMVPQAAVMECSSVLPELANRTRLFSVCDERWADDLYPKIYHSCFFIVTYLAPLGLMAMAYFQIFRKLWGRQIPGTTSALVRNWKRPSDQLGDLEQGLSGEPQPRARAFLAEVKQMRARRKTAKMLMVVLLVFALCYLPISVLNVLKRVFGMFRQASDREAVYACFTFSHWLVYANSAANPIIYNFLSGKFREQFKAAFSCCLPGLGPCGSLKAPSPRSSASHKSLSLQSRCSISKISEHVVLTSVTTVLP

[10] = (§1) Counterscreen for antagonists of the orexin 1 receptor (OX1R; HCRTR1): Fluorescence-based cell-based high throughput dose response assay to identify antagonists of the parental CHO cell line. [Related pubchem assays (depositor defined):AID434989, AID435008, AID463079, AID485270, AID492963, AID492964, AID492965, AID493232, AID504699, AID504701]; assay type: functional
[11] = molecular target: T2, Probable nicotinate-nucleotide adenylyltransferase; assay type: functional, Staphylococcus aureus subsp. aureus N315
Orexin receptor type 2 [12] = molecular target: T4, Orexin receptor type 2 (Homo sapiens, UniProt O43614); experiment: Counterscreen assay for antagonists of the orexin 1 receptor (OX1R; HCRTR1): Fluorescence-based cell-based dose response assay for antagonists of the orexin 2 receptor (OX2R; HCRTR2), run by assay provider.; assay type: functional
T4 sequence (O43614 whole entry): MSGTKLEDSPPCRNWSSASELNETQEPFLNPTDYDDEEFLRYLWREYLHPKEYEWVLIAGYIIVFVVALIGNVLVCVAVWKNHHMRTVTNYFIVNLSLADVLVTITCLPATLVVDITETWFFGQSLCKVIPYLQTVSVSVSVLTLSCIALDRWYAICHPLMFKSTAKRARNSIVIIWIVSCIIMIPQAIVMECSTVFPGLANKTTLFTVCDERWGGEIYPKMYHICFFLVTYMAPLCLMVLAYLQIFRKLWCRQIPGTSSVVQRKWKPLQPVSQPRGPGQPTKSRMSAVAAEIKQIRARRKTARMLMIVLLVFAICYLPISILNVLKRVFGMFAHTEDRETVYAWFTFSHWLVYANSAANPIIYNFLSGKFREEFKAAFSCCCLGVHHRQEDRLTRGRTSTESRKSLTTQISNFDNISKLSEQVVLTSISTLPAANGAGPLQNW

[13] = molecular target: T3, Orexin/Hypocretin receptor type 1; experiment: Fluorescence-based cell-based high throughput dose response assay for antagonists of the orexin 1 receptor (OX1R; HCRTR1). [Related pubchem assays (depositor defined):AID434989, AID435008, AID463079, AID485270, AID492963, AID492964, AID492965, AID493232, AID504717, AID504718]; assay type: functional
[14] = molecular target: Peroxisome proliferator-activated receptor gamma/Nuclear receptor coactivator 2 (Homo sapiens, UniProt P37231); assay type: functional;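 also: agonist potency for raising coactivator recruitment to the receptor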
[15] = molecular target: Disintegrin and metalloproteinase domain-containing protein 17 (Homo sapiens, UniProt P78536); experiment: inhibition of ADAM17 substrate cleavage – biochemical, quenched FRET substrate, counter-screen for ADAM10 exosite inhibitor project, dose response (AID 743253)
Orexin receptor type 2 [16] = molecular target: T4, Orexin receptor type 2; experiment: Counterscreen assay for antagonists of the orexin 1 receptor (OX1R; HCRTR1): Homogeneous Time Resolved Fluorescence (HTRF)-based cell-based dose response assay for antagonists of the orexin 2 receptor (OX2R; HCRTR2), run by assay provider.; assay type: functional
[17] = molecular target: Peroxisome proliferator-activated receptor gamma/Nuclear receptor coactivator 1 (Homo sapiens, UniProt P37231); assay type: functional;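 also: agonist potency as compounds enhance coactivator SRC-1 recruitment to PPARgamma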
[18] = molecular target: Peroxisome proliferator-activated receptor gamma/Nuclear receptor coactivator 3 (Homo sapiens, UniProt P37231); assay type: functional;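 also: agonist potency for raising coactivator recruitment to the receptor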
CHO-K1 = experiment: as §1, with “Homogeneous time resolved fluorescence (HTRF)-based” for “Fluorescence-based”, “cell-based” for “cell-based high throughput”, “CHO-K1” for “CHO”; assay type: functional; details: Cricetulus griseus;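 also: potency for inhibition of ATP-stimulated IP1 production as antagonists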
[19] = potency of ADAM10 substrate cleavage blockers – biochemical, QFRET, dose response (AID 743254);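 also: ADAM10 enzyme with the DM2 quenched FRET peptide as substrate; EDANS fluorescence gain as the protease cuts the substrate; inhibitor potency against ADAM10 proteolytic activity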
[20] = molecular target: Aryl hydrocarbon receptor (Homo sapiens, UniProt P35869); details: Potency;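 also: confirmatory quantitative high-throughput screen measuring activation of the AhR signaling pathway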
[21] = molecular target: Sentrin-specific protease 1 (Homo sapiens, UniProt Q9P0U3); experiment: Dose response confirmation of small molecule inhibitors of the catalytic domain of the SUMO protease, SENP1 in a FRET assay.; assay type: functional; details: read-out: IC50_Mean
[22] = bead-based luminescence quenchers, dual-tagged ARNT – biochemical, AlphaScreen, cherry-pick, artefact control for ARNT-TACC3 interaction inhibitor project, dose response (AID 651705); assay type: functional;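 also: AlphaScreen bead proximity signal that flags compounds interfering with the detection technology; potency reflects signal decrease which marks the compound as an assay artifact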

T2 sequence (P65502 whole entry): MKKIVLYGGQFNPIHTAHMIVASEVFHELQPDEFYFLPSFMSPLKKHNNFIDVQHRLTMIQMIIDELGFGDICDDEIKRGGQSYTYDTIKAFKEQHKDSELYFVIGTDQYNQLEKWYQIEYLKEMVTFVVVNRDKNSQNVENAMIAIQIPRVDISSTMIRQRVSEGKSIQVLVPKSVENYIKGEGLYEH
Sequence of DNA repair protein RAD52 homolog (P43351 whole entry): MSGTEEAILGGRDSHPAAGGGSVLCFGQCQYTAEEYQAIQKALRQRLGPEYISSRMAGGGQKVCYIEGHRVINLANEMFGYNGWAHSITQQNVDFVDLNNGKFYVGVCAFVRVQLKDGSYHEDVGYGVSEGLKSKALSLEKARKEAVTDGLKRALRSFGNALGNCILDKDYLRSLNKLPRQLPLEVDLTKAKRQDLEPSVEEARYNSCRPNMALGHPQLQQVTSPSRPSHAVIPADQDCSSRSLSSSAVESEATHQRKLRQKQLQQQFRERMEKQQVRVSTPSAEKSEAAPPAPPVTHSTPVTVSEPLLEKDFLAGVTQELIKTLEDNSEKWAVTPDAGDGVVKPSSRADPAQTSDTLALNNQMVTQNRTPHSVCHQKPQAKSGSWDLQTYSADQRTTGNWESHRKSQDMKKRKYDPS
Sequence of Beta Lactamase (Q932Y6 whole entry): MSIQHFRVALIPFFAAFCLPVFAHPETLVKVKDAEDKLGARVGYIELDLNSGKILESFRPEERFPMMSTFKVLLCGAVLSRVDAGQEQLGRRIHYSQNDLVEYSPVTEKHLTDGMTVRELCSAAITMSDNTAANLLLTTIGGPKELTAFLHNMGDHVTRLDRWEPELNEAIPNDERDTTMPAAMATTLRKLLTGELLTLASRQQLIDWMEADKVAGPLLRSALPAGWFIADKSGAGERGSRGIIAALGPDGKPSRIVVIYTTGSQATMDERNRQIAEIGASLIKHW
Sequence of Peroxisome proliferator-activated receptor gamma/Nuclear receptor coactivator 2 (P37231 whole entry, the tested form may be a part): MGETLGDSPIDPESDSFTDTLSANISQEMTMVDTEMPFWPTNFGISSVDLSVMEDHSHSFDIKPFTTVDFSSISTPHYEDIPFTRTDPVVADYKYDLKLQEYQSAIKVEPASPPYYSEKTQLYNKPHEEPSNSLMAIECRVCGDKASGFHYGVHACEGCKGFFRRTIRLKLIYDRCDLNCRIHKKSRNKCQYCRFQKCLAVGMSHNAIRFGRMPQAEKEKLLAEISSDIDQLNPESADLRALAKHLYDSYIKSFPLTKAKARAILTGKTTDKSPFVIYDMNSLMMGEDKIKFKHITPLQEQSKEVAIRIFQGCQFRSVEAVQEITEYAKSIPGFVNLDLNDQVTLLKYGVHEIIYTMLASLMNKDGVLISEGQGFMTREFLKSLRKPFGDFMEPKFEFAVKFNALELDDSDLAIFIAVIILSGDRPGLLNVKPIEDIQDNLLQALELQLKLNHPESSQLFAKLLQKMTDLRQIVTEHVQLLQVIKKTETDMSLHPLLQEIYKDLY
Sequence of Peroxisome proliferator-activated receptor gamma/Nuclear receptor coactivator 2 (Q15596 whole entry, further chain, the tested form may be a part): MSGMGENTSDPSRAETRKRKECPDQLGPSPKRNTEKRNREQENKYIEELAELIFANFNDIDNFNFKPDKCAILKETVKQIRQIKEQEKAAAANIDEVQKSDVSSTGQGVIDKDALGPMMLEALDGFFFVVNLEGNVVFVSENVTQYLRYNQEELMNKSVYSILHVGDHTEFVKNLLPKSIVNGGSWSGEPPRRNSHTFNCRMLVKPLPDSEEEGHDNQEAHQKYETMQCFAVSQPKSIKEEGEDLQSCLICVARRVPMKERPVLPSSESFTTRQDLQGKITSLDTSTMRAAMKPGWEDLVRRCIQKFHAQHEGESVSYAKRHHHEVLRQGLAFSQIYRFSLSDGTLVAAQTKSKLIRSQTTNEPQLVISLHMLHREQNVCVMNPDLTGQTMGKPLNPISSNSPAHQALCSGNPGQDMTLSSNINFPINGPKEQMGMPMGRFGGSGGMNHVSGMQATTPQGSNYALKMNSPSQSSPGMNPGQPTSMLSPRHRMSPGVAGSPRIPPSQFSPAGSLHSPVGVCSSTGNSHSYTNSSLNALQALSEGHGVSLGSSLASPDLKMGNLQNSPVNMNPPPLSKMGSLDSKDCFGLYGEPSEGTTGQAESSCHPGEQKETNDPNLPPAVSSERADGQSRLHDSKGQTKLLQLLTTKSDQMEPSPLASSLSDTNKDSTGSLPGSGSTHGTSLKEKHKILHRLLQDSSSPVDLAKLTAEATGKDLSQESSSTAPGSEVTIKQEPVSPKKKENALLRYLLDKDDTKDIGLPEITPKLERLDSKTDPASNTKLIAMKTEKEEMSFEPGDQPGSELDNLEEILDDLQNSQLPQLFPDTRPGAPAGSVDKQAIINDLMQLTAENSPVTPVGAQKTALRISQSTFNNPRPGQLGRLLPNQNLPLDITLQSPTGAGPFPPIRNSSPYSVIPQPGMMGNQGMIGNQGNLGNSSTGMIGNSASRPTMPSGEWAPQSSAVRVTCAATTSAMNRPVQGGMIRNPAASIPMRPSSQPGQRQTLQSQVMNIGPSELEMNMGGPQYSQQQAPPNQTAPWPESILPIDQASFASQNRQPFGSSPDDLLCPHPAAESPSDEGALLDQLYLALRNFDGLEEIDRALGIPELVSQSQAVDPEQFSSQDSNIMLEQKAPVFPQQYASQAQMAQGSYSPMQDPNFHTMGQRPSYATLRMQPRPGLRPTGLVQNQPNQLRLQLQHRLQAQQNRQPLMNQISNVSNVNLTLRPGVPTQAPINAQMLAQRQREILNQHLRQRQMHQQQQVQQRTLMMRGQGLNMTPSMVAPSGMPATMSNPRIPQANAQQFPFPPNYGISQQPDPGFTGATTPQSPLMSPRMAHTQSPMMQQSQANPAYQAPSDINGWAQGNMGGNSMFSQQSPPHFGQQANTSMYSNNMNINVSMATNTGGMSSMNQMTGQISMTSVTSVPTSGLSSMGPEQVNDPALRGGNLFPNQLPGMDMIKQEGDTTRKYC
Sequence of Peroxisome proliferator-activated receptor gamma/Nuclear receptor coactivator 1 (P37231 whole entry): as the sequence (P37231 whole entry, the tested form may be a part) above
Sequence of Peroxisome proliferator-activated receptor gamma/Nuclear receptor coactivator 1 (Q15788 whole entry, further chain): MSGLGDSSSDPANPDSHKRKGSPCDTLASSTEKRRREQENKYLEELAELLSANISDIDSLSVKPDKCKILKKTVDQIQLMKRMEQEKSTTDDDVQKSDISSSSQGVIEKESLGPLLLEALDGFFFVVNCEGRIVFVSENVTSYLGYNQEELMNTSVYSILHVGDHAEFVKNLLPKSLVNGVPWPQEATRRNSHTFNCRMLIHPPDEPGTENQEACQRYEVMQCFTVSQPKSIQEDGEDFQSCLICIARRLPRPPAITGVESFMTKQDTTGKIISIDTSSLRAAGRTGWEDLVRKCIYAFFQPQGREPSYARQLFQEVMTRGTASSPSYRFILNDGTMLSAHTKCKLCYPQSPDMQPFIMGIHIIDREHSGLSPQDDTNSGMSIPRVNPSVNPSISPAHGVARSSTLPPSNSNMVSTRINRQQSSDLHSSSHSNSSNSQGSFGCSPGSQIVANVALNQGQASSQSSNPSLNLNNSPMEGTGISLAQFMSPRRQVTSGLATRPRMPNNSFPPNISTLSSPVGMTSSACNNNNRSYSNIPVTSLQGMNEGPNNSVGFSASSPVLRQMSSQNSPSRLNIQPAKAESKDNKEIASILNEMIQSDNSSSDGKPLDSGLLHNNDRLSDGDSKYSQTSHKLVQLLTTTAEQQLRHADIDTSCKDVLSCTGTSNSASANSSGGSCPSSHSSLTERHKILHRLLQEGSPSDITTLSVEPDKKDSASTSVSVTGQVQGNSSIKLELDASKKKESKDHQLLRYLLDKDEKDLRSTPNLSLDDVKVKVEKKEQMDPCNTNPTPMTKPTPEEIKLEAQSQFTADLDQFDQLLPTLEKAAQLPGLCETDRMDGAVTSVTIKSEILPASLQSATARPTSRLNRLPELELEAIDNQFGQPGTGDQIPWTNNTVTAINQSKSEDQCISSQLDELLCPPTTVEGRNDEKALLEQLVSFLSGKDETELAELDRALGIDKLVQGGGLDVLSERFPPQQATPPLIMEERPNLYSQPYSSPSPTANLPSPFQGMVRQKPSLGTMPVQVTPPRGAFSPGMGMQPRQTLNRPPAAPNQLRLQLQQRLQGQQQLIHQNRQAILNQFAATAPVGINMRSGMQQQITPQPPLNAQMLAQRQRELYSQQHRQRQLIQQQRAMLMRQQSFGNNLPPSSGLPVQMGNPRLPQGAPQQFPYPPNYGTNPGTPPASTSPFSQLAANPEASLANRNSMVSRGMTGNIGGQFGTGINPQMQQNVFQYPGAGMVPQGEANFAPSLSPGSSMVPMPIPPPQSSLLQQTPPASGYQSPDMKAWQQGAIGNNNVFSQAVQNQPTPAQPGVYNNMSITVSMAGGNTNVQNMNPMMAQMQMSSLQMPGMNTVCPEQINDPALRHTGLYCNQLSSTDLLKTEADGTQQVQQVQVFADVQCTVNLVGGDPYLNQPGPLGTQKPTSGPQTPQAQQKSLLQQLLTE
Sequence of FAD-linked sulfhydryl oxidase ALR (P55789 whole entry): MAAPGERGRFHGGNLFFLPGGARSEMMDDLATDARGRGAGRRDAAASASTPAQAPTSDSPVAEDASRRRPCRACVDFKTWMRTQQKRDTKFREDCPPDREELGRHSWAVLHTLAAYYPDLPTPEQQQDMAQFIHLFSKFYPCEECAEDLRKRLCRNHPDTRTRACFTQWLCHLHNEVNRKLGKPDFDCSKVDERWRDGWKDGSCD

Compound: COC1C(OC(=O)/C=C/C=C/C=C/C=C/C(=O)O)CCC2(CO2)C1C1(C)OC1CC=C(C)C.c1ccc(Nc2ccccc2)cc1 (stereo unspecified)
- IC50 [1]: 94.5 µM (inactive)

Compound: COc1ccc(Nc2c3ccccc3nc3ccccc23)cc1
- AC50 [2]: 1.9 µM (active)
- AC50 [3]: 7.04 µM (active)
- AC50 [4]: 0.016 µM (active)

Compound: COC(=O)C1=C(C(=O)OC)C2OC1c1cc3ccccc3cc12
- AC50 (Paired box protein Pax-8): 5.41 µM (active)
- IC50 (Beta Lactamase): 10.1 µM (inactive)
- AC50 [5]: 23 µM (active)
- CC50 (Vero): > 25 µM (active)
- IC50 [6]: 1.63 µM (active)
- AC50 [7]: 1.59 µM (active)

Compound: O=C(CSc1ccc(Br)c2cccc(Cl)c12)Nc1ccc(S(=O)(=O)Nc2nccs2)cc1
- IC50 [8]: 25.8 µM (active)
- IC50 [9]: 1.43 µM (active)
- IC50 [10]: > 49.8 µM (inactive)
- IC50 [11]: 6.53 µM (active)
- IC50 (Orexin receptor type 2 [12]): 31.5 µM (inactive)
- IC50 [13]: 4.31 µM (active)
- EC50 [14]: 28.6 µM (not active)
- IC50 [15]: > 69.5 µM (inactive)
- IC50 (Orexin receptor type 2 [16]): > 50 µM (inactive)
- EC50 [17]: 61 µM (not active)
- EC50 [18]: 84.2 µM (not active)
- IC50 (CHO-K1): > 66.2 µM (inactive)
- IC50 [19]: > 69.5 µM (inactive)

Compound: COC(=O)Nc1cccc(OC(=O)Nc2cccc(C)c2)c1
- AC50 [20]: 39.8 µM (inconclusive)

Compound: COc1ccc(OC)c(CCNC(=O)c2ccc3c(=O)[nH]c4c(C(=O)NC(C)C)sc(=S)n4c3c2)c1
- IC50 [21]: 20.9 µM (inactive)

Compound: CC(=O)OC[C@H]1O[C@@H](Sc2cccc3cccnc23)[C@H](OC(C)=O)[C@@H](OC(C)=O)[C@H]1OC(C)=O
- AC50 [22]: 91.4 µM (active)
